Results from US20160045513A1, “ISOXAZOLE COMPOUND FOR THE TREATMENT OF CANCER” (Novartis AG, priority 2007, published 2016).

How the values were obtained:
CA20948 xenograft = experiment: antitumor effect in the rat pancreatic cancer model CA20948; format: in vivo; settings: for T/C (%) / ΔTumor volume (mm^3): qw; for ΔTumor volume (mm^3): mean ±SEM, *P < 0.05
Protocol: The transplantable rat pancreatic tumor CA20948 is serially passaged as cell homogenates in male syngeneic Lewis rats. The injection site is subcutaneously on the right flank. […] Tumor growth is monitored at regular intervals. The xenograft tumor sizes is measured manually with calipers and the tumor volume is estimated using the formula: (W×L^2×π/6), where width (W) and height (H) are the two largest diameters. Results are presented as mean ±SEM. Tumor data were analyzed by ANOVA with post hoc Dunnet's test for comparison of treatment versus control group. As a measure of efficacy the % T/C value is calculated at the end of the experiment according to: (Δtumor volumetreated/Δtumor volumecontrol)*100 where Δtumor volumes represent the mean tumor volume on the evaluation day minus the mean tumor volume at the start of the experiment. The antitumor effect of AUY922 is evaluated in the CA20948 xenograft model. Each group consisted of six tumor bearing animals. At the end of the study, the tumor sizes in the treatment groups are compared to those of the vehicle treated groups and the effect is expressed as % T/C.

CXF 609 = experiment: clonogenic assay, human tumor xenografts in vitro; format: cell-based; settings: Colon, CXF 609, Adeno carcinoma, soft agar, read-out: IC50 (nM), colony formation
Protocol: (§1) The anticancer activity of 5-(2,4-Dihydroxy-5-isopropyl-phenyl)-4-(4-morpholin-4-ylmethyl-phenyl)-isoxazole-3-carboxylic acid ethylamide is evaluated in 30 human tumor xenografts in vitro using a clonogenic assay. In this assay, human cells derived from cancer patients are evaluated for the capacity of 5-(2,4-Dihydroxy-5-isopropyl-phenyl)-4-(4-morpholin-4-ylmethyl-phenyl)-isoxazole-3-carboxylic acid ethylamide to inhibit the formation of 3 dimensional colonies. […] The tumor xenografts which have never been cultured in cell culture plastic dishes are isolated from nude mice. Tumor cell suspensions are prepared and incubated in 24 well plates containing layers of soft agar. Under these conditions a special subpopulation of cells selectively grows to colonies. 5-(2,4-Dihydroxy-5-isopropyl-phenyl)-4-(4-morpholin-4-ylmethyl-phenyl)-isoxazole-3-carboxylic acid ethylamide was tested in 6 concentrations up to […]. The tumor test panel comprises 1 to 6 models of 10 different human tumor or cancer types, which were bladder cancer, colon, liver, non small cell lung (adeno, squamous epithelium and large cell), small cell lung, mammary, ovary, pancreatic, melanoma and pleuramesothelioma. Antitumor effects are recorded as inhibition of colony formation in relation to untreated controls. Further information on the method has been published (Burger et al., 2004; Fiebig et al., 2004; Smith et al., 2005).
(§2) The cells are continually exposed to 5-(2,4-Dihydroxy-5-isopropyl-phenyl)-4-(4-morpholin-4-ylmethyl-phenyl)-isoxazole-3-carboxylic acid ethylamide and colony formation is determined.

LXFA 629 = experiment: clonogenic assay, human tumor xenografts in vitro; format: cell-based; settings: Lung, non-small cell, LXFA 629, Adeno carcinoma, soft agar, read-out: IC50 (nM), colony formation
Protocol: as §1, §2

LXFS 650 = experiment: clonogenic assay, human tumor xenografts in vitro; format: cell-based; settings: Lung, small cell, LXFS 650, Small cell lung carcinoma, soft agar, read-out: IC50 (nM), colony formation
Protocol: as §1, §2

BXF 1228 = experiment: clonogenic assay, human tumor xenografts in vitro; format: cell-based; settings: Bladder, BXF 1228, Transitional cell carcinoma, soft agar, read-out: IC50 (nM), colony formation
Protocol: as §1, §2

MAXF 1322 = experiment: clonogenic assay, human tumor xenografts in vitro; format: cell-based; settings: Breast, MAXF 1322, Pap. adeno carcinoma, soft agar, read-out: IC50 (nM), colony formation
Protocol: as §1, §2

BXF 1218 = experiment: clonogenic assay, human tumor xenografts in vitro; format: cell-based; settings: Bladder, BXF 1218, Transitional cell carcinoma, soft agar, read-out: IC50 (nM), colony formation
Protocol: as §1, §2

MEXF 672 = experiment: clonogenic assay, human tumor xenografts in vitro; format: cell-based; settings: Melanoma, MEXF 672, Amelanotic melanoma, soft agar, read-out: IC50 (nM), colony formation
Protocol: as §1, §2

MEXF 1539 = experiment: clonogenic assay, human tumor xenografts in vitro; format: cell-based; settings: Melanoma, MEXF 1539, Melanoma, soft agar, read-out: IC50 (nM), colony formation
Protocol: as §1, §2

LXFL 1647 = experiment: clonogenic assay, human tumor xenografts in vitro; format: cell-based; settings: Lung, non-small cell, LXFL 1647, Large cell lung carcinoma, soft agar, read-out: IC50 (nM), colony formation
Protocol: as §1, §2

LXFA 526 = experiment: clonogenic assay, human tumor xenografts in vitro; format: cell-based; settings: Lung, non-small cell, LXFA 526, Adeno carcinoma, soft agar, read-out: IC50 (nM), colony formation
Protocol: as §1, §2

CXF 1729 = experiment: clonogenic assay, human tumor xenografts in vitro; format: cell-based; settings: Colon, CXF 1729, Carcinoma, soft agar, read-out: IC50 (nM), colony formation
Protocol: as §1, §2

LXFS 615 = experiment: clonogenic assay, human tumor xenografts in vitro; format: cell-based; settings: Lung, small cell, LXFS 615, Small cell lung carcinoma, soft agar, read-out: IC50 (nM), colony formation
Protocol: as §1, §2

MEXF 535 = experiment: clonogenic assay, human tumor xenografts in vitro; format: cell-based; settings: Melanoma, MEXF 535, Amelanotic melanoma, soft agar, read-out: IC50 (nM), colony formation
Protocol: as §1, §2

CXF 1103 = experiment: clonogenic assay, human tumor xenografts in vitro; format: cell-based; settings: CXF1103, Colon, CXF 1103, Adeno carcinoma, soft agar, read-out: IC50 (nM), colony formation
Protocol: as §1, §2

OVXF 1353 = experiment: clonogenic assay, human tumor xenografts in vitro; format: cell-based; settings: Ovary, OVXF 1353, Adeno carcinoma, soft agar, read-out: IC50 (nM), colony formation
Protocol: as §1, §2

CXF 158 = experiment: clonogenic assay, human tumor xenografts in vitro; format: cell-based; settings: CXF158, Colon, CXF 158, Adeno carcinoma, soft agar, read-out: IC50 (nM), colony formation
Protocol: as §1, §2

OVXF 1544 = experiment: clonogenic assay, human tumor xenografts in vitro; format: cell-based; settings: Ovary, OVXF 1544, Carcinoma, soft agar, read-out: IC50 (nM), colony formation
Protocol: as §1, §2

LIXF 575 = experiment: clonogenic assay, human tumor xenografts in vitro; format: cell-based; settings: Liver, LIXF 575, Hepatocellular carcinoma, soft agar, read-out: IC50 (nM), colony formation
Protocol: as §1, §2

PAXF 1657 = experiment: clonogenic assay, human tumor xenografts in vitro; format: cell-based; settings: Pancreas, PAXF 1657, Adeno carcinoma, soft agar, read-out: IC50 (nM), colony formation
Protocol: as §1, §2

IC50 (CXF 609): 55 nM
IC50 (LXFA 629): 35 nM
IC50 (LXFS 650): 2 nM
IC50 (BXF 1228): 630 nM
IC50 (MAXF 1322): 29 nM
IC50 (BXF 1218): 27 nM
IC50 (MEXF 672): 18 nM
IC50 (MEXF 1539): 3 nM
IC50 (LXFL 1647): 34 nM
IC50 (LXFA 526): 5 nM
IC50 (CXF 1729): 467 nM
IC50 (LXFS 615): 30 nM
IC50 (MEXF 535): 43 nM
IC50 (CXF 1103): 13 nM
IC50 (OVXF 1353): 26 nM
IC50 (CXF 158): 369 nM
IC50 (OVXF 1544): 53 nM
IC50 (LIXF 575): 34 nM
IC50 (PAXF 1657): 39 nM
Compound: CCNC(=O)c1noc(-c2cc(C(C)C)c(O)cc2O)c1-c1ccc(CN2CCOCC2)cc1 [AUY922, 5-(2,4-Dihydroxy-5-isopropyl-phenyl)-4-(4-morpholin-4-ylmethyl-phenyl)-isoxazole-3-carboxylic acid ethylamide]
T/C (%) (CA20948 xenograft; 50 mg/kg, i.v.): 30%
ΔTumor volume (mm^3) (CA20948 xenograft; 50 mg/kg, i.v.): 7090 ± 2553* mm^3
T/C (%) (CA20948 xenograft; 75 mg/kg, i.v): 21%
ΔTumor volume (mm^3) (CA20948 xenograft; 75 mg/kg, i.v): 4796 ± 1354* mm^3
reduction of tumor sizes versus vehicle (CA20948 xenograft; once per week at 50 and 75 mg/kg): Statistically significant reduction of tumor sizes
